The compounds below were run against T1, Mcl-1/Bim interaction, recombinant human Mcl-1 (171-327) (Homo sapiens, UniProt Q07820) (assay: Cell free Mcl-1: Bim Affinity Assay (Mcl-1 HTRF)). Settings: TR-FRET, 0.1 nM Mcl-1 (171-327), 0.05 nM biotin-Bim (51-76).
T1 construct: made in house
Type: binding
Summary of the method: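 Compounds were mixed with the protein and a biotinylated Bim peptide spanning human residues 51-76. Plates were left overnight, then TR-FRET signal was measured. A four-parameter sigmoidal model applied to duplicate competition data gave IC50.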

T1 sequence (Q07820 171-327): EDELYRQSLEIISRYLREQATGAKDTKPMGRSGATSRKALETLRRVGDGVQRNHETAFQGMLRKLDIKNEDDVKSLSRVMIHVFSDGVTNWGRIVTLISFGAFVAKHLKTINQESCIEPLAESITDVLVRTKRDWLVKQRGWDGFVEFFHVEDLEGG

Row | Compound | IC50 [nM]
1 | O=C1NS(=O)(=O)C(CCOC(F)(F)F)CC/C=C/[C@H](O)[C@@H]2CC[C@H]2CN2C[C@@]3(CCCc4cc(Cl)ccc43)COc3ccc1cc32 (single isomer, unassigned) [Example 1012] | 0.698
2 | O=C1NS(=O)(=O)[C@@H](CCOC(F)(F)F)CC/C=C/[C@H](O)[C@@H]2CC[C@H]2CN2C[C@@]3(CCCc4cc(Cl)ccc43)COc3ccc1cc32 (single isomer, unassigned) [Example 1013] | 18.1
3 | O=C1NS(=O)(=O)[C@H]2COC[C@H]2C/C=C/[C@H](O)[C@@H]2CC[C@H]2CN2C[C@@]3(CCCc4cc(Cl)ccc43)COc3ccc1cc32 (single isomer, unassigned) [Example 1029] | 4.42
4 | C[C@@H]1[C@H](C)/C=C/[C@H](O)[C@@H]2CC[C@H]2CN2C[C@@]3(CCCc4cc(Cl)ccc43)COc3ccc(cc32)C(=O)NS(=O)(=O)[C@H]1C (single isomer, unassigned) [Example 1044] | 35.8
5 | CC[C@@H]1CC/C=C/[C@@H](NC(C)=O)[C@@H]2CC[C@H]2CN2C[C@@]3(CCCc4cc(Cl)ccc43)COc3ccc(cc32)C(=O)NS1(=O)=O (single isomer, unassigned) [Example 1078] | 0.557
6 | CC[C@@H]1CC/C=C\[C@@H](NC(C)=O)[C@@H]2CC[C@H]2CN2C[C@@]3(CCCc4cc(Cl)ccc43)COc3ccc(cc32)C(=O)NS1(=O)=O (single isomer, unassigned) [Example 1079] | 5.48
7 | O=C1NS(=O)(=O)C[C@@H](CO)C/C=C/[C@@H](O)[C@@H]2CC[C@H]2CN2C[C@@]3(CCCc4cc(Cl)ccc43)COc3ccc1cc32 (single isomer, unassigned) [Example 1089] | 0.874
8 | O=C1NS(=O)(=O)C[C@H](CO)C/C=C/[C@@H](O)[C@@H]2CC[C@H]2CN2C[C@@]3(CCCc4cc(Cl)ccc43)COc3ccc1cc32 (single isomer, unassigned) [Example 1090] | 2.77
9 | C/C=C/C1CC(=O)[C@@H]2CC[C@H]2CN2C[C@@]3(CCCc4cc(Cl)ccc43)COc3ccc(cc32)C(=O)NS(=O)(=O)[C@H](C)[C@@H](C)C1 (stereo in doubt) [Example 350, (1S,3′R,6′R,9′R,11′S,12′R)-6-chloro-11′,12′-dimethyl-9′-((1E)-1-propen-1-yl)-3,4-dihydro-2H,7′H,15′H-spiro[naphthalene-1,22′-[20]oxa[13]thia[1,14]diazatetracyclo[14.7.2.0^3,6.0^19,24]pentacosa [16,18,24]triene]-7′,15′-dione 13′,13′-dioxide] | 3.73
10 | C/C=C/C1CC(=O)[C@@H]2CC[C@H]2CN2C[C@@]3(CCCc4cc(Cl)ccc43)COc3ccc(cc32)C(=O)NS(=O)(=O)[C@H](C)[C@@H](C)C1 (stereo in doubt) [Example 353, (1S,3′R,6′R,9′S,11′S,12′R)-6-chloro-11′,12′-dimethyl-9′-((1E)-1-propen-1-yl)-3,4-dihydro-2H,7′H,15′H-spiro[naphthalene-1,22′-[20]oxa[13]thia[1,14]diazatetracyclo[14.7.2.0^3,6.0^19,24]pentacosa [16,18,24]triene]-7′,15′-dione 13′,13′-dioxide] | 9.09
11 | CC[C@@H]1CC/C=C/C(NC(C)=O)[C@@H]2CC[C@H]2CN2C[C@@]3(CCCc4cc(Cl)ccc43)COc3ccc(cc32)C(=O)NS1(=O)=O (stereo in doubt) [Example 1076, N-((1S,3′R,6′R,7′R,8′E,12′R)-6-chloro-12′-ethyl-13′,13′-dioxido-15′-oxo-3,4-dihydro-2H-spiro[naphthalene-1,22′-[20]oxa[13]thia[1,14]diazatetracyclo[14.7.2.0^3,6.0^19,24]pentacosa[8,16,18,24]tetraen]-7′-yl)acetamide] | 1.82
12 | COC[C@H]1C/C=C/[C@H](OC)[C@@H]2CC[C@H]2CN2C[C@@]3(CCCc4cc(Cl)ccc43)COc3ccc(cc32)C(=O)NS(=O)(=O)[C@@H]1C [Example 2, (1S,3′R,6′R,7′S,8′E,11′R,12′R)-6-chloro-7′-methoxy-11′-(methoxymethyl)-12′-methyl-3,4-dihydro-2H,15′H-spiro[naphthalene-1,22′-[20]oxa[13]thia[1,14]diazatetracyclo[14.7.2.0^3,6.0^19,24]pentacosa [8,16,18,24]tetraen]-15′-one 13′,13′-dioxide] | 6.85
13 | CCN1CC/C=C/[C@H](OCC(=O)O)[C@@H]2CC[C@H]2CN2C[C@@]3(CCCc4cc(Cl)ccc43)COc3ccc(cc32)C(=O)NS1(=O)=O [Example 44, (((1S,3′R,6′R,7′S,8′E)-6-chloro-12′-ethyl-13′,13′-dioxido-15′-oxo-3,4-dihydro-2H-spiro[naphthalene-1,22′-[20]oxa[13]thia[1,12,14]triazatetracyclo[14.7.2.0^3,6.0^19,24]pentacosa[8,16,18,24]tetraen]-7′-yl)oxy)acetic Acid] | 0.115
14 | CCN1CC/C=C/[C@H](OC)[C@@H]2CC[C@H]2CN2C[C@@]3(CCCc4cc(Cl)ccc43)COc3ccc(cc32)C(=O)NS1(=O)=O [Example 45] | 2.3
15 | CCN1CCCC[C@H](O)[C@@H]2CC[C@H]2CN2C[C@@]3(CCCc4cc(Cl)ccc43)COc3ccc(cc32)C(=O)NS1(=O)=O [Example 86, (1S,3′R,6′R,7′S)-6-chloro-12′-ethyl-7′-hydroxy-3,4-dihydro-2H,15′H-spiro[naphthalene-1,22′-[20]oxa[13]thia[1,12,14]triazatetracyclo[14.7.2.0^3,6.0^19,24]pentacosa[16,18,24]trien]-15′-one 13′,13′-dioxide] | 4.04
16 | O=C1NS(=O)(=O)[C@@H]2CC[C@H]2CCC[C@H](O)[C@@H]2CC[C@H]2CN2C[C@@]3(CCCc4cc(Cl)ccc43)COc3ccc1cc32 [Example 91, (1S,3′R,6′R,7′S,11′R,14′R)-6-chloro-7′-hydroxy-3,4-dihydro-2H,17′H-spiro[naphthalene-1,24′-[22]oxa[15]thia[1,16]diazapentacyclo[16.7.2.0^3,6.0^11,14.0^21,26]heptacosa[18,20,26]trien]-17′-one 15′,15′-dioxide] | 3.06
17 | O=C1NS(=O)(=O)[C@H]2CC[C@@H]2CCC[C@H](O)[C@@H]2CC[C@H]2CN2C[C@@]3(CCCc4cc(Cl)ccc43)COc3ccc1cc32 [Example 92, (1S,3′R,6′R,7′S,11′S,14′S)-6-chloro-7′-hydroxy-3,4-dihydro-2H,17′H-spiro[naphthalene-1,24′-[22]oxa[15]thia[1,16]diazapentacyclo[16.7.2.0^3,6.0^11,14.0^21,26]heptacosa[18,20,26]trien]-17′-one 15′,15′-dioxide] | 0.781
18 | COc1ccc(CN2CCCCS(=O)(=O)NC(=O)c3ccc4c(c3)N(C[C@@H]3CC[C@H]3C2=O)C[C@@]2(CCCc3cc(Cl)ccc32)CO4)cc1 [Example 96, (1S,3′R,6′R)-6-chloro-8′-(4-methoxybenzyl)-3,4-dihydro-2H,7′H,15′H-spiro[naphthalene-1,22′-[20]oxa[13]thia[1,8,14]triazatetracyclo[14.7.2.0^3,6.0^19,24]pentacosa[16,18,24]trien]-7′,15′-dione 13′,13′-dioxide] | 31.7
19 | O=C1NS(=O)(=O)CCCCNC(=O)[C@@H]2CC[C@H]2CN2C[C@@]3(CCCc4cc(Cl)ccc43)COc3ccc1cc32 [Example 98, (1S,3′R,6′R)-6-chloro-3,4-dihydro-2H,7′H,15′H-spiro[naphthalene-1,22′-[20]oxa[13]thia[1,8,14]triazatetracyclo[14.7.2.0^3,6.0^19,24]pentacosa[16,18,24]triene]-7′,15′-dione 13′,13′-dioxide] | 15.5
20 | CN1CCCCS(=O)(=O)NC(=O)c2ccc3c(c2)N(C[C@@H]2CC[C@H]2C1=O)C[C@@]1(CCCc2cc(Cl)ccc21)CO3 [Example 99, (1S,3′R,6′R)-6-chloro-8′-methyl-3,4-dihydro-2H,7′H,15′H-spiro[naphthalene-1,22′-[20]oxa[13]thia[1,8,14]triazatetracyclo[14.7.2.0^3,6.0^19,24]pentacosa[16,18,24]trien]-7′,15′-dione 13′,13′-dioxide] | 20.7

Same assay, conditions: cell free Mcl-1:Bim TR-FRET, recombinant human Mcl-1 (171-327)

Row | Compound | IC50 [nM]
21 | O=C1NS(=O)(=O)[C@H]2CCN(C2)C(=O)CC[C@@H]2CC[C@H]2CN2C[C@@]3(CCCc4cc(Cl)ccc43)COc3ccc1cc32 (single isomer, unassigned) [Example 946] | 4.15
22 | O=C1NS(=O)(=O)CCC[C@@H]2C[C@H]2[C@H](O)[C@@H]2CC[C@H]2CN2C[C@@]3(CCCc4cc(Cl)ccc43)COc3ccc1cc32 (single isomer, unassigned) [Example 950] | 1.49
23 | C[C@@H]1CC[C@@H]2C[C@H]2[C@H](O)[C@@H]2CC[C@H]2CN2C[C@@]3(CCCc4cc(Cl)ccc43)COc3ccc(cc32)C(=O)NS1(=O)=O (single isomer, unassigned) [Example 951] | 13.1
24 | O=C1NS(=O)(=O)CCOCCC[C@@H]2CC[C@H]2CN2C[C@@]3(CCCc4ccccc43)COc3ccc1cc32 (stereo in doubt) [Example 824, (3S,6R,22S)-3′,4′-dihydro-2′H,15H-spiro[10,20-dioxa-13-thia-1,14-diazatetracyclo[14.7.2.0^3,6.^019,24]pentacosa-16,18,24-triene-22,1′-naphthalen]-15-one 13,13-dioxide] | 20.1
25 | O=C1NS(=O)(=O)CCOC/C=C/C2CCC2CN2C[C@@]3(CCCc4cc(Cl)ccc43)COc3ccc1cc32 (stereo in doubt) [Example 826, (3S,6R,7E,22S)-6′-chloro-3′,4′-dihydro-2′H,15H-spiro[10,20-dioxa-13-thia-1,14-diazatetracyclo[14.7.2.0^3,6.0^19,24]pentacosa-7,16,18,24-tetraene-22,1′-naphthalen]-15-one 13,13-dioxide] | 10.5
26 | O=C1NS(=O)(=O)CCOCCCC2CCC2CN2C[C@@]3(CCCc4cc(Cl)ccc43)COc3ccc1cc32 (stereo in doubt) [Example 827, (3S,6R,22S)-6′-chloro-3′,4′-dihydro-2′H,15H-spiro[10,20-dioxa-13-thia-1,14-diazatetracyclo[14.7.2.0^3,6.0^19,24]pentacosa-16,18,24-triene-22,1′-naphthalen]-15-one 13,13-dioxide] | 3.54

Reference: patent US12091425B2 (AMGEN INC., priority 2016, dated 2024)
